Read-outs that look alike come from different tables or passages of the source.
Legend:
[1] = test system: microbial growth; conditions: pCO2~300 mbar; Baez A et al. 2009; cited from earlier work
[2] = test system: Escherichia coli, strain MG1655; assay: Effect of high partial pressure of carbon dioxide on growth and metabolism of E. coli cultured on glucose (batch fermenters); format: cell-based; conditions: pCO2~800 mbar
Procedure: Escherichia coli, strain MG1655 (ATCC Number 700926; American Type Culture Collection (ATCC), Manassas, Va.), was grown in batch mode in 1.4 L Multifors fermenters (Infors A G, Basel, Switzerland) equipped with temperature, pH and dO (dissolved oxygen) control. Initially, the fermenters contained in 1 L total volume: KH2PO4, 7.5 g/L; MgSO4.7H2O, 2.0 g/L; citric acid, 1.83 g/L; ferric ammonium citrate, 0.3 g/L; CaCl2.2H2O, 0.2 g/L; sulfuric acid (98%), 1.2 mL/L; yeast extract, 5 g/L; and glucose (10 g/L). After sterilization, 10 mL of a trace metal mixture and 1 mL of a thiamine solution (150 mM) was added and the medium was adjusted to the desired pH (see below) with 3 M NaOH. The trace metal mixture contained: MnSO4.H2O, 3 g/L; NaCl, 1 g/L; FeSO4.7H2O, 0.1 g/L; CoCl2.6H2O, 0.1 g/L; ZnSO4.7H2O, 0.1 g/L; CuSO4.5H2O, 0.0064 g/L; H3BO3, 0.01 g/L; and Na2MoO4.2H2O, 0.01 g/L. In one set of three fermenters, gas flow (air) was fixed at 0.5 VVM (volume per volume per minute) and pH was automatically maintained at pH 6.2, pH 6.5 and 6.8 with the addition of 3 M NaOH. […]
After equilibration with the gases, evident by the cessation of NaOH addition, the fermenters were inoculated at an initial OD600 of approximately 0.4 absorbance units (AU). […]

[3] = cited from earlier work
[4] = in the presence of CO2 and N2 mixtures; cited from earlier work

In the case of O=C=O [carbon dioxide], the “effect on microbial growth” value [1] is listed as “significantly inhibit microbial growth” and the “effect on growth rate of E. coli” value [2] is listed as “only slight impairments of growth rate”.
For C=CC=C [1,3-butadiene], the solubility in water ([3]; at 1 bar and 20° C.) is listed as “about 735 ppm” and the “flammable minimum oxygen concentration (MOC) value” [4] is listed as “about 10.5%”.
In the case of C=CC [propylene], the “flammable minimum oxygen concentration (MOC) value” [4] is listed as “about 13%”.
For C=C(C)C [isobutene], the solubility in water ([3]; at 1 bar and 20° C.) is listed as “about 260 ppm” and the “flammable minimum oxygen concentration (MOC) value” [4] is listed as “about 13%”.
For C=CC(=C)C [isoprene], the solubility in water ([3]; at 1 bar and 25° C.) is listed as “about 642 ppm” and the “flammable minimum oxygen concentration (MOC) value” [4] is listed as “about 9.7%”.
